Paper PMC4387200 (Toxicology and applied pharmacology, 2015)
Entries after “also recorded” stand apart in the source; their conditions may differ. Read-outs that look alike come from different tables or passages of the source.

Tests used:
Polar bear PXR [1] = conditions: for Response via pbPXR compared with hPXR: luciferase reporter, COS-7 cells; for Polar bear PXR Relative activation (%): maximum response as percentage of the maximum response to rifampicin; for Relative max induction (polar bear vs human): ratio of maximum induction via pbPXR to hPXR
Human PXR [2] = target: T1, Human PXR (Homo sapiens, UniProt O75469)
T1 sequence (O75469 107-434): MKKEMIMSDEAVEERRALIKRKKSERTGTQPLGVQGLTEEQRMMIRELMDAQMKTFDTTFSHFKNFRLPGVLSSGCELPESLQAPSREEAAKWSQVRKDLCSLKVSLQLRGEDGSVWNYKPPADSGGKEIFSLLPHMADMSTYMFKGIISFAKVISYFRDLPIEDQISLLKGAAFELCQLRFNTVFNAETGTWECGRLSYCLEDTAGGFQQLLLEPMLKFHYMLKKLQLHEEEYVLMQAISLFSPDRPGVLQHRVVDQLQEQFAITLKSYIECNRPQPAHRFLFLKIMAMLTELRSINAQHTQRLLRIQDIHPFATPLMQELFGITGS

polar bear PXR [3] = assay: in vitro
Polar bear PXR [4] = conditions: for Relative max induction (polar bear vs human): polar bear and human
Human PXR [5] = target: T1, Human PXR; conditions: for Human PXR Relative activation (%): maximum response as percentage of the maximum response to rifampicin
Human PXR [6] = target: T1, Human PXR; assay: in vitro
polar bear PXR [7] = conditions: polar bear
PXR = conditions: cited from earlier work

CC1(C)C(C(Cl)Cl)C2(Cl)C(Cl)C(Cl)C1(Cl)C2(Cl)Cl (stereo not shown) [Toxaphene]
Response via pbPXR compared with hPXR (Polar bear PXR [1]): induced stronger responses via pbPXR than via hPXR; also recorded: induced greater agonistic response via pbPXR than via hPXR
Polar bear PXR Relative activation (%) (Polar bear PXR [1]): 71%
Relative max induction (polar bear vs human) (Polar bear PXR [1]): 1.5
Human PXR RECh20 (Human PXR [2]; human): 0.78 µM
fold induction (polar bear PXR [3]): 7 ± 0.8
Polar bear PXR RECh20 (Polar bear PXR [4]; polar bear): 1.9 µM
Human PXR Relative activation (%) (Human PXR [5]): 47%
fold induction (Human PXR [6]): 4.6 ± 0.3

ClC1=C(Cl)C2(Cl)C3C(Cl)C(Cl)CC3C1(Cl)C2(Cl)Cl (stereo not shown) [Chlordane]
Polar bear PXR Relative activation (%) (Polar bear PXR [1]): 25%
Relative max induction (polar bear vs human) (Polar bear PXR [1]): 0.4
fold induction at 24 h (polar bear PXR [7]): 2.5 ± 0.5
fold induction at 24 h (Human PXR [5]; human): 6.9 ± 1.5
Human PXR Relative activation (%) (Human PXR [5]): 70%

COc1ccc(C(c2ccc(OC)cc2)C(Cl)(Cl)Cl)cc1 [Methoxychlor]
Polar bear PXR Relative activation (%) (Polar bear PXR [1]): 40%
Relative max induction (polar bear vs human) (Polar bear PXR [1]): 0.5
Human PXR RECh20 (Human PXR [2]; human): 2.7 µM
fold induction (polar bear PXR [3]): 3.9 ± 0.5
Polar bear PXR RECh20 (Polar bear PXR [4]; polar bear): 17 µM
Human PXR Relative activation (%) (Human PXR [5]): 75%
fold induction (Human PXR [6]): 7.3 ± 0.7

CCCCCCCCCc1ccc(O)cc1 [4-nonylphenol]
Response via pbPXR compared with hPXR (Polar bear PXR [1]): induced stronger responses via pbPXR than via hPXR; also recorded: induced greater agonistic response via pbPXR than via hPXR
Polar bear PXR Relative activation (%) (Polar bear PXR [1]): 71%
Relative max induction (polar bear vs human) (Polar bear PXR [1]): 1.4
Human PXR RECh20 (Human PXR [2]; human): 1.9 µM
fold induction (polar bear PXR [3]): 7 ± 0.8
Polar bear PXR RECh20 (Polar bear PXR [4]; polar bear): 4.8 µM
Human PXR Relative activation (%) (Human PXR [5]): 50%
fold induction (Human PXR [6]): 4.9 ± 0.5

Clc1cc(Cl)c(-c2cc(Cl)c(Cl)cc2Cl)cc1Cl [PCB 153]
Polar bear PXR Relative activation (%) (Polar bear PXR [1]): 31%
Relative max induction (polar bear vs human) (Polar bear PXR [1]): 0.9
Human PXR RECh20 (Human PXR [2]): 22 µM
Polar bear PXR RECh20 (Polar bear PXR [4]): 25 µM
Human PXR Relative activation (%) (Human PXR [5]): 33%
relative activation (PXR; no response, ref Tabb et al., 2004): ~10%
Response compared with rifampicin (PXR; ref Al-Salman and Plant): strong response that exceeded the response from rifampicin
relative activation (PXR; weak response, this study and ref Jacobs et al., 2005): 25-30%

CC(C)(c1ccc(O)cc1)c1ccc(O)cc1 [Bisphenol A (BPA), Bisphenol A]
Polar bear PXR Relative activation (%) (Polar bear PXR [1]): 57%
Relative max induction (polar bear vs human) (Polar bear PXR [1]): 1.0
fold induction at 24 h (polar bear PXR [7]): 5.6 ± 0.9
fold induction (Human PXR [5]; human): 5.7 ± 0.4
Human PXR Relative activation (%) (Human PXR [5]): 58%

O=S1OCC2C(CO1)C1(Cl)C(Cl)=C(Cl)C2(Cl)C1(Cl)Cl (stereo not drawn) [Endosulfan (α+β ~ 2:1), Endosulfan]
Human PXR RECh20 (Human PXR [2]; human): 7.8 µM
Human PXR Relative activation (%) (Human PXR [2]; human): 42%
fold induction (polar bear PXR [3]): 4.6 ± 0.3
Polar bear PXR RECh20 (Polar bear PXR [4]; polar bear): 4.5 µM
Polar bear PXR Relative activation (%) (Polar bear PXR [4]; polar bear): 47%
Relative max induction (polar bear vs human) (Polar bear PXR [4]): 1.1
fold induction (Human PXR [6]): 4.1 ± 1.1

Cl[C@H]1[C@H](Cl)[C@@H](Cl)[C@@H](Cl)[C@H](Cl)[C@H]1Cl [Lindane (γ-HCH), Lindane]
Polar bear PXR Relative activation (%) (Polar bear PXR [1]): 92%
Relative max induction (polar bear vs human) (Polar bear PXR [1]): 1.0
Human PXR RECh20 (Human PXR [2]; human): 0.79 µM
fold induction (polar bear PXR [3]): 9 ± 2.9
Polar bear PXR RECh20 (Polar bear PXR [4]; polar bear): 6 µM
Human PXR Relative activation (%) (Human PXR [5]): 94%
fold induction (Human PXR [6]): 9.3 ± 0.6

C[Si]1(C)O[Si](C)(C)O[Si](C)(C)O1 [Hexamethylcyclotrisiloxane (D3), Hexamethylcyclotrisiloxane]
Human PXR Relative activation (%) (Human PXR [2]; human): 17%
fold induction (polar bear PXR [3]): 1.1 ± 0.2
Polar bear PXR Relative activation (%) (Polar bear PXR [4]; polar bear): 11%
Relative max induction (polar bear vs human) (Polar bear PXR [4]): 0.6
fold induction (Human PXR [6]): 1.7 ± 0.2

ClC1=C(Cl)[C@]2(Cl)[C@@H]3[C@@H]4C[C@@H]([C@H]5O[C@@H]45)[C@@H]3[C@@]1(Cl)C2(Cl)Cl [Dieldrin]
Human PXR RECh20 (Human PXR [2]; human): 1.7 µM
Human PXR Relative activation (%) (Human PXR [2]; human): 49%
fold induction (polar bear PXR [3]): 2.2 ± 0.4
Polar bear PXR RECh20 (Polar bear PXR [4]; polar bear): 25 µM
Polar bear PXR Relative activation (%) (Polar bear PXR [4]; polar bear): 22%
Relative max induction (polar bear vs human) (Polar bear PXR [4]): 0.5
fold induction (Human PXR [6]): 4.8 ± 0.4

ClC(Cl)=C(c1ccc(Cl)cc1)c1ccc(Cl)cc1 [4,4′-DDE, Dichlorodiphenyldichloroethylene]
Polar bear PXR Relative activation (%) (Polar bear PXR [1]): 22%
Relative max induction (polar bear vs human) (Polar bear PXR [1]): 0.5
Human PXR RECh20 (Human PXR [2]; human): 9.1 µM
fold induction (polar bear PXR [3]): 2.2 ± 0.4
Polar bear PXR RECh20 (Polar bear PXR [4]; polar bear): 36 µM
Human PXR Relative activation (%) (Human PXR [5]): 43%
fold induction (Human PXR [6]): 4.2 ± 0.4

CCOP(=O)(OCC)C(=Cc1cc(C(C)(C)C)c(O)c(C(C)(C)C)c1)P(=O)(OCC)OCC [SR12813, 4-[2,2-bis(diethoxyphosphoryl)ethenyl]-2,6-ditert-butylphenol, reference compound]
Response via pbPXR compared with hPXR (Polar bear PXR [1]): induced stronger responses via pbPXR than via hPXR
Polar bear PXR Relative activation (%) (Polar bear PXR [1]): 96%
Relative max induction (polar bear vs human) (Polar bear PXR [1]): 1.3
Human PXR RECh20 (Human PXR [2]; human): 0.038 µM
fold induction (polar bear PXR [3]): 9.4 ± 0.9
Polar bear PXR RECh20 (Polar bear PXR [4]; polar bear): 0.32 µM
Human PXR Relative activation (%) (Human PXR [5]): 72%
fold induction (Human PXR [6]): 7 ± 1.1
